Assay results: patent publication US20240130988A1, “Use of stilbene compounds in the preparation of anti-tumor drugs” (Guangzhou AnHao Pharmaceutical Technology CO., LTD., priority 2022, published 2024)

Key:
Type in all cases: in vivo
human lung cancer A549 = test: Compound 8 combined with carboplatin, human lung cancer A549 xenograft in nude mice; details: ip: carboplatin 10 mg/kg, compound 8 200 mg/kg, combination 10 + 200
Source text: (§1) Experimental method: The model of human lung cancer A549 transplant tumor in nude mice was established by subcutaneously inoculating human lung cancer A549 cell lines into the armpits of nude mice. Cells were inoculated in an amount of 1×10^6, and after formation of the transplanted tumors by inoculation, the cells were passed 3 generations in nude mice before use. The vigorous growth of tumor tissue was cut into approximate 1.5 mm^3, and homogenized under sterile conditions, to prepare 1×10^7/mL of cell suspension. 0.1 mL of cell suspension was subcutaneously inoculated into the right armpit of nude mice. For transplanted tumors in nude mice, the diameter was measured with vernier caliper. After the tumor grew to 100 mm^3, the animals were randomly divided into groups, with 6 mice in each group. Using the method of measuring tumor diameter, the anti-tumor effect of test compound was dynamically Observed. Compound 8 was administered at 200 mg/kg by intraperitoneal injection, once every other day, for three weeks; carboplatin was administered at 10 mg/kg by intraperitoneal injection, once every other day, for three weeks. The measurement frequency of tumor diameter was once every three days. The dosage by volume was 0.1 mL/20 g. The mice in the negative control group were given an equal amount of physiological saline by intravenous injection. The effect of combined medicaments was evaluated based on the Q value calculated by Jin's formula: […]
Ea+b represents the tumor inhibitory rate of the combined medicaments, while Ea and Eb represent the tumor inhibitory rates of medicament A and medicament B, respectively. For example, the Q value of 0.85-1.15 means additive action (+), while the Q value of >1.15 means synergistic action (++).

[1] = tested on: human liver cancer Bel7404; test: Compound 3 combined with lenvatinib, human liver cancer Bel7404 xenograft in nude mice; details: po: lenvatinib 10 mg/kg, compound 3 400 mg/kg, combination 10 + 400
Source text: Experimental method: The model of human liver cancer Bel7404 transplant tumor in nude mice was established by subcutaneously inoculating human liver cancer Bel7404 cell lines into the armpits of nude mice. Cells were inoculated in an amount of 1×10^6, and after formation of the transplanted tumors by inoculation, the cells were passed 3 generations in nude mice before use. The vigorous growth of tumor tissue was cut into approximate 1.5 mm^3, and homogenized under sterile conditions, to prepare 1×10^7/mL of cell suspension. 0.1 mL of cell suspension was subcutaneously inoculated into the right armpit of nude mice. For transplanted tumors in nude mice, the diameter of the transplanted tumor was measured with vernier caliper. After the tumor grew to 100 mm^3, the animals were randomly divided into groups, with 6 animals in each group. Using the method of measuring tumor diameter, the anti-tumor effect of test compound was dynamically observed. Compound 3 was orally administered at 400 mg/kg, once a day, for three weeks; lenvartinib was also orally administered at 10 mg/kg, once a day, for two weeks. The measurement frequency of tumor diameter was once every three days. The animals in the negative control group were orally given an equal amount of physiological saline. The effect of combined medicaments was evaluated based on the Q value calculated by the Jin's formula: […]
Ea+b represents the tumor inhibitory rate of the combined medicaments, while Ea and Eb represent the tumor inhibitory rates of medicament A and medicament B, respectively. For example, the Q value of 0.85-1.15 means additive action (+), and the Q value of >1.15 means synergistic action (++).

[2] = tested on: human gastric cancer SGC7901; test: Compound 6 combined with paclitaxel, human gastric cancer SGC7901 xenograft in nude mice; details: paclitaxel 10 mg/kg iv, compound 6 200 mg/kg ip, combination 10 + 200
Source text: as §1, with “gastric” for “lung”, “SGC7901” for “A549”, “Using the method of measuring tumor diameter, the anti-tumor effect of test compound was dynamically Observed. Compound 8 was administered at 200 mg/kg by intraperitoneal injection, once every other day, for three weeks; carboplatin was administered at 10 mg/kg by intraperitoneal injection, once every other day, for three weeks.” left out
Ea+b represents the tumor inhibitory rate of the combined medicaments, while Ea and Eb represent the tumor inhibitory rates of medicament A and medicament B, respectively.

N.N.O=C([O-])C1(C(=O)[O-])CCC1.[Pt+2] [Carboplatin]
RTV (d 21) (human lung cancer A549): 6.63 ± 1.42 | Terminal weight (human lung cancer A549): 21.5 ± 0.9 g | Tumor inhibitory rate % (human lung cancer A549): 48.48%

COc1cc2nccc(Oc3ccc(NC(=O)NC4CC4)c(Cl)c3)c2cc1C(N)=O [Lenvatinib, reference compound]
RTV (d 21) [1]: 3.89 ± 1.46 | Terminal weight [1]: 21.8 ± 0.7 g | Tumor inhibitory rate % [1]: 65.36%

CC(=O)O[C@H]1C(=O)[C@@]2(C)[C@H]([C@H](OC(=O)c3ccccc3)[C@]3(O)C[C@H](OC(=O)[C@H](O)[C@@H](NC(=O)c4ccccc4)c4ccccc4)C(C)=C1C3(C)C)[C@]1(OC(C)=O)CO[C@@H]1C[C@@H]2O [Paclitaxel, reference compound]
RTV (d 21) [2]: 7.37 ± 1.76 | Terminal weight [2]: 21.7 ± 0.6 g | Tumor inhibitory rate % [2]: 45.49%
